Values of other authors as cited in patent US20170071839A1, “Personal care and medicinal products incorporating organosulfur groups” (priority 2015, published 2017).
Like-named read-outs stand apart in the source and are kept apart here. Blank lines part the entries; values can stand above or below the compound they belong to.

Key:
[1] = test system: Salmonella typhimurium and E. coli
[2] = test system: acetaminophen (Tylenol) poisoning
[3] = test system: total glutathione level of cells
[4] = molecular target: NFkB signal transduction proteins p50 and P65 (Homo sapiens, UniProt P19838+Q04206)
[5] = shelf stability
[6] = after fresh garlic (e.g. 25 g) or pure allicin (60 mg)
NFkB = conditions: macrophages
[7] = after garlic consumption
[8] = not given; remark: listed apart in the source

Compound: CCCS[S+]([O-])CCC (stereo not drawn) [dipropylthiosulfinate]
- nematicidal activity (nematicidal activity): most effective compound

Compound: CCCSSCCC [di-n-proply disulfide]
- antibiotic effectiveness [1]: antibiotic effectiveness

Compound: C=CCSSC[C@H](N)C(=O)O [SAMC, S-AllylMercaptoCysteine]
- protection from acetaminophen poisoning ([2]; post treatment, single dose 200 mg/kg): protective
- protection from acetaminophen poisoning ([2]; pretreatment): protect mice
- effect on Cu2+ induced LDL oxidation (LDL): significantly reduce
- Reaction in Blood Product (moles): AllylSH (0.8)
- total glutathione level of cells [3]: significantly increase the total glutathione level

Compound: C=CCSSCC=C [DADS, Diallyl Disulfide]
- Reaction in Blood Product (moles): AllylSH (0.8)

Compound: C=CCSSCCC [n-propyl allyl disulfide]
- antibiotic effectiveness [1]: antibiotic effectiveness

Compound: CS[S+](C)[O-] (stereo not drawn) [methyl methane thiosulfinate]
- activity against E-coli O157:H7 (E-coli O157:H7): effective

Compound: [N]=O [nitric oxide]
- concentration that inhibited the DNA binding activity [4]: 20-100 nano mole

Compound: C=CCSC[C@H](N)C(=O)O [S-allylcysteine]
- effect on Cu2+ induced LDL oxidation (LDL): significantly reduce

- half-life [5]: weeks to months
- Reaction in Blood Product (moles): AllylSH (1.6)
- time to be metabolized to allyl mercaptan (red blood cells exposed to allicin): less than one
- detection in blood, urine, or stool [6]: undetectable
Compound: C=CCS[S+]([O-])CC=C (stereo not drawn) [Allicin, DiAllylThioSulfinate]

Compound: C=CCS[S+](C)[O-] (stereo not drawn) [methyl allyl thiosulfinate]
- activity against E-coli O157:H7 (E-coli O157:H7): effective

Compound: C=CCSC[C@H](NC(C)=O)C(=O)O [N-acetyl-S-allylcysteine]
- effect on Cu2+ induced LDL oxidation (LDL): significantly reduce

Compound: N[C@@H](CSN=O)C(=O)O [S-Nitrosocysteine]
- concentration that nearly completely inhibits the activation of NFkB (NFkB): 1 micro-mole

Compound: S-allylcysteine sulfoxide [alliin]
- effect on Cu2+ induced LDL oxidation (LDL): significantly reduce

Compound: C=CCSC [AMS, allyl methyl sulfide]
- time of disappearance from breath [7]: 20 h

- time of disappearance from breath [7]: ≤ 1 h
- solubility [8]: water soluble
Compound: C=CCS [AllylSH, AllylThiol]

- solubility [8]: low solubility
Compound: N[C@@H](CSSC[C@H](N)C(=O)O)C(=O)O [Cysteine disulfide, Cystine]
